The record followed here is PubChem BioAssay AID1259407 (Chemical Carcinogenesis Research Information System (CCRIS), 2018).

Calls of active or inactive are those of the source. How the calls were made is not given here.

This data set concerns CCRIS mutagenicity, Ames/micronucleus/aberration tests. Put plainly: CCRIS mutagenicity studies.
[1] abbreviates: Test System: AMES SALMONELLA TYPHIMURIUM, Strain/Indicator: TA98, Metabolic Activation: NONE, Method: PREINCUBATION
Setting [2] is: Test System: AMES SALMONELLA TYPHIMURIUM, Strain/Indicator: TA97, Metabolic Activation: NONE, Method: STANDARD PLATE.
The mark [3] stands for this setting: Test System: AMES SALMONELLA TYPHIMURIUM, Strain/Indicator: TA98, Metabolic Activation: NONE, Method: STANDARD PLATE.
Where [4] appears, read: Test System: AMES SALMONELLA TYPHIMURIUM, Strain/Indicator: TA100, Metabolic Activation: NONE, Method: STANDARD PLATE.
[5] abbreviates: Test System: AMES SALMONELLA TYPHIMURIUM, Strain/Indicator: TA102, Metabolic Activation: NONE, Method: STANDARD PLATE.
Where [6] appears, read: Test System: AMES SALMONELLA TYPHIMURIUM, Strain/Indicator: TA98, Metabolic Activation: RAT, LIVER, S-9, AROCLOR 1254, Method: STANDARD PLATE.

With `COc1cc(Cl)c(OC)cc1Cl`, the mutagenic call is “inactive; negative” (Test System: AMES SALMONELLA TYPHIMURIUM, Strain/Indicator: TA98, Metabolic Activation: HAMSTER, LIVER, S-9, AROCLOR 1254 (5 OR 10%), Method: PREINCUBATION); “inactive; negative” (Test System: AMES SALMONELLA TYPHIMURIUM, Strain/Indicator: TA98, Metabolic Activation: HAMSTER, LIVER, S-9, AROCLOR 1254 (30%), Method: PREINCUBATION); “inactive; negative” under setting [1]; “inactive; negative” (Test System: AMES SALMONELLA TYPHIMURIUM, Strain/Indicator: TA98, Metabolic Activation: RAT, LIVER, S-9, AROCLOR 1254 (30%), Method: PREINCUBATION); “inactive; negative” (Test System: AMES SALMONELLA TYPHIMURIUM, Strain/Indicator: TA100, Metabolic Activation: HAMSTER, LIVER, S-9, AROCLOR 1254 (5 OR 10%), Method: PREINCUBATION); “active; positive” (Test System: AMES SALMONELLA TYPHIMURIUM, Strain/Indicator: TA100, Metabolic Activation: HAMSTER, LIVER, S-9, AROCLOR 1254 (30%), Method: PREINCUBATION). Also, the mutagenic call is, setting by setting: (Test System: AMES SALMONELLA TYPHIMURIUM, Strain/Indicator: TA100, Metabolic Activation: NONE, Method: PREINCUBATION) “inactive; negative”; (Test System: AMES SALMONELLA TYPHIMURIUM, Strain/Indicator: TA100, Metabolic Activation: RAT, LIVER, S-9, AROCLOR 1254 (30%), Method: PREINCUBATION) “inactive; negative”.
Regarding `CC1C(C)(C)C2=C(C(=O)CCC2)C1(C)C` (stereo not given), the mutagenic call runs as follows: under setting [2], “inactive; negative”; (Test System: AMES SALMONELLA TYPHIMURIUM, Strain/Indicator: TA97, Metabolic Activation: RAT LIVER S-9, AROCLOR 1254, Method: STANDARD PLATE) “inactive; negative”; under setting [3], “inactive; negative”; (Test System: AMES SALMONELLA TYPHIMURIUM, Strain/Indicator: TA98, Metabolic Activation: RAT LIVER S-9, AROCLOR 1254, Method: STANDARD PLATE) “inactive; negative”; under setting [4], “inactive; negative”; (Test System: AMES SALMONELLA TYPHIMURIUM, Strain/Indicator: TA100, Metabolic Activation: RAT LIVER S-9, AROCLOR 1254, Method: STANDARD PLATE) “inactive; negative”. Also, the mutagenic call reads like this: under setting [5], “inactive; negative”; (Test System: AMES SALMONELLA TYPHIMURIUM, Strain/Indicator: TA102, Metabolic Activation: RAT LIVER S-9, AROCLOR 1254, Method: STANDARD PLATE) “inactive; negative”.
Turning to `O=[N+]([O-])c1ccc2nc3ccc([N+](=O)[O-])cc3nc2c1`, the mutagenic call (Test System: AMES SALMONELLA TYPHIMURIUM, Strain/Indicator: TA98(NR), Metabolic Activation: NONE, Method: PREINCUBATION) was “active; positive” and the mutagenic call under setting [1] is “active; positive”.
`CCCCN[N+](=O)[O-]`: the mutagenic call (Test System: E. COLI, Strain/Indicator: WP2 (HCR-), Metabolic Activation: NONE) is “active; positive”.
Turning to `O=[N+]([O-])c1cc(-c2cccc([N+](=O)[O-])c2O)ccc1O`, under setting [1], the mutagenic call is “inactive; negative”.
As to `N=C(N)c1ccc2c(N)c(C(=N)N)[nH]c2c1`, the mutagenic call was “inactive; negative” under setting [3]; “inactive; negative” (Test System: AMES SALMONELLA TYPHIMURIUM, Strain/Indicator: TA98, Metabolic Activation: RAT, LIVER, S-9, PHENOBARBITAL, Method: STANDARD PLATE); “inactive; negative” under setting [4]; “inactive; negative” (Test System: AMES SALMONELLA TYPHIMURIUM, Strain/Indicator: TA100, Metabolic Activation: RAT, LIVER, S-9, PHENOBARBITAL, Method: STANDARD PLATE).
For the molecule `CCCCCCCCCCSCn1cc[n+](C)c1`, the mutagenic call was “inactive; negative” under setting [3]; “inactive; negative” under setting [6]; “inactive; negative” under setting [4]; “active; positive” (Test System: AMES SALMONELLA TYPHIMURIUM, Strain/Indicator: TA100, Metabolic Activation: RAT, LIVER, S-9, AROCLOR 1254, Method: STANDARD PLATE); “inactive; negative” (Test System: AMES SALMONELLA TYPHIMURIUM, Strain/Indicator: TA1535, Metabolic Activation: NONE, Method: STANDARD PLATE); “active; positive” (Test System: AMES SALMONELLA TYPHIMURIUM, Strain/Indicator: TA1535, Metabolic Activation: RAT, LIVER, S-9, AROCLOR 1254, Method: STANDARD PLATE). Besides, the mutagenic call is “inactive; negative” (Test System: AMES SALMONELLA TYPHIMURIUM, Strain/Indicator: TA1537, Metabolic Activation: NONE, Method: STANDARD PLATE); “inactive; negative” (Test System: AMES SALMONELLA TYPHIMURIUM, Strain/Indicator: TA1537, Metabolic Activation: RAT, LIVER, S-9, AROCLOR 1254, Method: STANDARD PLATE); “inactive; negative” (Test System: AMES SALMONELLA TYPHIMURIUM, Strain/Indicator: TA1538, Metabolic Activation: NONE, Method: STANDARD PLATE); “inactive; negative” (Test System: AMES SALMONELLA TYPHIMURIUM, Strain/Indicator: TA1538, Metabolic Activation: RAT, LIVER, S-9, AROCLOR 1254, Method: STANDARD PLATE).
In the case of `CC(=O)CC(=O)Nc1ccccc1C`, the mutagenic call under setting [5] was “inactive; negative”; the mutagenic call (Test System: AMES SALMONELLA TYPHIMURIUM, Strain/Indicator: TA2638, Metabolic Activation: NONE, Method: STANDARD PLATE) was “inactive; negative”; the mutagenic call (Test System: Ames Salmonella typhimurium, Strain/Indicator: TA98, Metabolic Activation: None, Method: Preincubation) was “inactive; negative”; the mutagenic call (Test System: Ames Salmonella typhimurium, Strain/Indicator: TA98, Metabolic Activation: Rat, Liver, S9, Sodium phenobarbital and 5,6-benzoflavone (10%), Method: Preincubation) was “inactive; negative”; the mutagenic call (Test System: Ames Salmonella typhimurium, Strain/Indicator: TA100, Metabolic Activation: None, Method: Preincubation) was “inactive; negative”; the mutagenic call (Test System: Ames Salmonella typhimurium, Strain/Indicator: TA100, Metabolic Activation: Rat, Liver, S9, Sodium phenobarbital and 5,6-benzoflavone (10%), Method: Preincubation) is “inactive; negative”. The mutagenic call is, setting by setting: (Test System: Ames Salmonella typhimurium, Strain/Indicator: TA1535, Metabolic Activation: None, Method: Preincubation) “inactive; negative”; (Test System: Ames Salmonella typhimurium, Strain/Indicator: TA1535, Metabolic Activation: Rat, Liver, S9, Sodium phenobarbital and 5,6-benzoflavone (10%), Method: Preincubation) “inactive; negative”; (Test System: Ames Salmonella typhimurium, Strain/Indicator: TA1537, Metabolic Activation: None, Method: Preincubation) “inactive; negative”; (Test System: Ames Salmonella typhimurium, Strain/Indicator: TA1537, Metabolic Activation: Rat, Liver, S9, Sodium phenobarbital and 5,6-benzoflavone (10%), Method: Preincubation) “inactive; negative”; (Test System: E. COLI, Strain/Indicator: WP2 (PKM101), Metabolic Activation: NONE, Method: STANDARD PLATE) “inactive; negative”; (Test System: E. COLI, Strain/Indicator: WP2 UVRA (PKM101), Metabolic Activation: NONE, Method: STANDARD PLATE) “inactive; negative”. Further, the mutagenic call is “inactive; negative” (Test System: E. coli, Strain/Indicator: WP2uvrA/pKM101, Metabolic Activation: None, Method: Preincubation); “inactive; negative” (Test System: E. coli, Strain/Indicator: WP2uvrA/pKM101, Metabolic Activation: Rat, Liver, S9, Sodium phenobarbital and 5,6-benzoflavone (10%), Method: Preincubation).
For `ClCc1ccncc1`, the mutagenic call reads like this: under setting [2], “inactive; negative”; (Test System: AMES SALMONELLA TYPHIMURIUM, Strain/Indicator: TA97, Metabolic Activation: RAT, LIVER, S-9, AROCLOR 1254, Method: STANDARD PLATE) “inactive; negative”; under setting [3], “inactive; negative”; under setting [6], “inactive; negative”; under setting [4], “inactive; negative”; under setting [5], “inactive; negative”. For the same molecule, where the note is “Test System: AMES SALMONELLA TYPHIMURIUM, Strain/Indicator: TA102, Metabolic Activation: RAT, LIVER, S-9, AROCLOR 1254, Method: STANDARD PLATE”, the mutagenic call is “inactive; negative”.
